The values that follow come from patent US9637493B2, “Substituted pyrrolopyrimidines as HDM2 inhibitors” (Merck Sharp & Dohme Corp., priority 2012, dated 2017).

Molecules are shown by their SMILES.

The target of this test is HDM2 (Homo sapiens (Human), UniProt Q00987). Briefly: HDM2 FRET assay (inhibition of p53 peptide binding to HDM2). The note with it: truncated HDM2 residues 17 to 125, 0.5 nM; FITC labeled 8-mer peptide 3 nM; two hour incubation at room temperature. The protocol: Methods: An HDM2 FRET assay was developed to assess the compounds' inhibitory activity towards binding of p53 protein. […] (containing p53 binding surface, Science (1994) 265, 346-355), with N-terminal His and Thioredoxin tag was generated in pET32a expression vector and expressed in E. coli strain BL21(DE3)Rosetta. Protein was purified using Ni-affinity chromatography, followed by size exclusion chromatography using Superdex 75 26/60 column. […] After two hour incubation at room temperature in a humidified chamber plates were read on EnVision plate reader with the following settings: excitation: UV, […], two emission filters: 520 nm and 495 nm respectively. […] IC50 DETERMINATIONS: Dose-response curves were plotted from the inhibition data, from 10 point serial dilutions of inhibitory compounds. Concentration of compound was plotted against em520/Cem495 ratio signal. To generate IC50 values, the dose-response curves were fitted to a standard sigmoidal curve and IC50 values were derived by nonlinear regression analysis.
HDM2, sequence (Q00987 17-125): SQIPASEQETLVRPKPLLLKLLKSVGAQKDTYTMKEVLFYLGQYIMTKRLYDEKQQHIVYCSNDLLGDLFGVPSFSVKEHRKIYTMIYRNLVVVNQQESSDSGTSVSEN
One may read the IC50 as the concentration needed to halve the response being measured. Higher therefore signals weaker potency. `C[C@H]1CC[C@H](Cn2ccc3nc(-c4n[nH]c(=O)o4)nc(-c4cncc(Cl)c4)c32)CC1` [Example 4.5, 5-{4-(5-chloropyridin-3-yl)-5-[(trans-4-methylcyclohexyl)methyl]-5H-pyrrolo[3,2-d]pyrimidin-2-yl}-1,3,4-oxadiazol-2(3H)-one] showed an IC50 of 0.095 µM.

As to `Cc1ccc(Cl)c(-c2cn(Cc3ccc(C(F)(F)F)cc3)c3c(N[C@H](C)C4CCC4)nc(C(=O)O)nc23)c1` [Example 1.8, 7-(2-chloro-5-methylphenyl)-4-{[(1R)-1-cyclobutylethyl]amino}-5-[4-(trifluoromethyl)benzyl]-5H-pyrrolo[3,2-d]pyrimidine-2-carboxylic acid], the IC50 is 0.712 µM.

On to `C[C@H]1CC[C@H](Cn2ccc3nc(-c4noc(=O)[nH]4)nc(-c4cccc(Cl)c4)c32)CC1` [Example 4.2, 3-{4-(3-chlorophenyl)-5-[(trans-4-methylcyclohexyl)methyl]-5H-pyrrolo[3,2-d]pyrimidin-2-yl}-1,2,4-oxadiazol-5(4H)-one], for which the IC50 came to 0.132 µM. Compared with the last compound, the IC50 is about 5.4-fold lower.

For `Cc1cn(C[C@H]2CC[C@H](C)CC2)c2c(-c3cncc(Cl)c3)nc(-c3noc(=O)[nH]3)nc12` [Example 5.4, 3-{4-(5-chloropyridin-3-yl)-7-methyl-5-[(trans-4-methylcyclohexyl)methyl]-5H-pyrrolo[3,2-d]pyrimidin-2-yl}-1,2,4-oxadiazol-5(4H)-one], the IC50 stood at 0.036 µM.

`Cc1cccc(-c2c(C)c3nc(C(=O)O)nc(N[C@H](C)C4CCC4)c3n2Cc2ccc(C(F)(F)F)cc2)c1` [Example 1.4, (R)-4-((1-cyclobutylethyl)amino)-7-methyl-6-(m-tolyl)-5-(4-(trifluoromethyl)benzyl)-5H-pyrrolo[3,2-d]pyrimidine-2-carboxylic acid]: the half-inhibitory concentration (IC50) stood at 0.13 µM.

In turn, `C[C@H]1CC[C@H](Cn2cc(CCc3cccnc3)c3nc(-c4noc(=O)[nH]4)nc(-c4cncc(Cl)c4)c32)CC1` [Example 6.2, 3-[4-(5-chloropyridin-3-yl)-5-[(trans-4-methylcyclohexyl)methyl]-7-(2-pyridin-3-ylethyl)-5H-pyrrolo[3,2-d]pyrimidin-2-yl]-1,2,4-oxadiazol-5(4H)-one] came in with an IC50 of 0.013 µM.

With `C[C@@H](Nc1nc(C(=O)O)nc2cc(-c3ccc4occc4c3)n(Cc3ccc(C(F)(F)F)cc3)c12)C1CCC1` [Example 1.6, 6-(1-benzofuran-5-yl)-4-{[(1R)-1-cyclobutylethyl]amino}-5-[4-(trifluoromethyl)benzyl]-5H-pyrrolo[3,2-d]pyrimidine-2-carboxylic acid], the IC50 worked out at 0.105 µM.

In turn, `C[C@H]1CC[C@H](Cn2cc(-c3ccccc3)c3nc(C(=O)O)nc(-c4cncc(Cl)c4)c32)CC1` [Example 5.5, 4-(5-chloropyridin-3-yl)-5-[(trans-4-methylcyclohexyl)methyl]-7-phenyl-5H-pyrrolo[3,2-d]pyrimidine-2-carboxylic acid] yielded an IC50 of 0.072 µM.

`C[C@H]1CC[C@H](Cn2cc(Cc3ccccc3)c3nc(-c4n[nH]c(=O)o4)nc(-c4cncc(Cl)c4)c32)CC1` [Example 5.6, 5-{7-benzyl-4-(5-chloropyridin-3-yl)-5-[(trans-4-methylcyclohexyl)methyl]-5H-pyrrolo[3,2-d]pyrimidin-2-yl}-1,3,4-oxadiazol-2(3H)-one] had a concentration for half-maximal inhibition (IC50) of 0.054 µM. This IC50 and that of the compound before are within 1.5-fold of each other.

On to `COc1ccc(Cn2c(-c3cccc(C)c3)cc3nc(C(=O)O)nc(N[C@H](C)C4CCC4)c32)cc1` [Example 2.8, 4-{[(1R)-1-cyclobutylethyl]amino}-5-(4-methoxybenzyl)-6-(3-methylphenyl)-5H-pyrrolo[3,2-d]pyrimidine-2-carboxylic acid], for which the IC50 is 6.19 µM.

`Cc1ccc(F)c(-c2cn(Cc3ccc(C(F)(F)F)cc3)c3c(N[C@H](C)C4CCC4)nc(C(=O)O)nc23)c1` [Example 1.2, (R)-4-((1-cyclobutylethyl)amino)-7-(2-fluoro-5-methylphenyl)-5-(4-(trifluoromethyl)benzyl)-5H-pyrrolo[3,2-d]pyrimidine-2-carboxylic acid] returned a concentration for half-maximal inhibition (IC50) of 0.353 µM.

`COc1ccc(C)cc1-c1cc2nc(C(=O)O)nc(N[C@H](C)C3CCC3)c2n1Cc1ccc(C(F)(F)F)cc1` [Example 1.5, 4-{[(1R)-1-cyclobutylethyl]amino}-6-(2-methoxy-5-methylphenyl)-5-[4-(trifluoromethyl)benzyl]-5H-pyrrolo[3,2-d]pyrimidine-2-carboxylic acid] yielded an IC50 of 0.042 µM.

Compound `Cc1cccc(-c2cc3nc(C(=O)O)nc(N[C@H](C)C4CCC4)c3n2Cc2ccc(C(F)(F)F)c(F)c2)c1` [Example 2.7, 4-{[(1R)-1-cyclobutylethyl]amino}-5-[3-fluoro-4-(trifluoromethyl)benzyl]-6-(3-methylphenyl)-5H-pyrrolo[3,2-d]pyrimidine-2-carboxylic acid] had an IC50 of 0.087 µM.

Consider `Cc1ccc(Cl)c(-c2cc3nc(C(=O)O)nc(N[C@H](C)C4CCC4)c3n2Cc2ccc(C(F)(F)F)cc2)c1` [Example 1.7, 6-(2-chloro-5-methylphenyl)-4-{[(1R)-1-cyclobutylethyl]amino}-5-[4-(trifluoromethyl)benzyl]-5H-pyrrolo[3,2-d]pyrimidine-2-carboxylic acid], for which the IC50 came to 0.063 µM. The IC50 values of the last two compounds are within 1.5-fold of each other.

Take `Cc1cccc(-c2cc3nc(C(=O)O)nc(N[C@H](C)C4CCC4)c3n2Cc2ccc(OC(F)(F)F)cc2)c1` [Example 2.3, 4-{[(1R)-1-cyclobutylethyl]amino}-6-(3-methylphenyl)-5-[4-(trifluoromethoxy)benzyl]-5H-pyrrolo[3,2-d]pyrimidine-2-carboxylic acid]: the IC50 is 0.348 µM. Compared with the last compound, the IC50 is about 5.5-fold higher.

Regarding `Cc1cccc(-c2cc3nc(C(=O)O)nc(N[C@H](C)C4CCC4)c3n2Cc2ccc(C(F)(F)F)cn2)c1` [Example 2.2, 4-{[(1R)-1-cyclobutylethyl]amino}-6-(3-methylphenyl)-5-{[5-(trifluoromethyl)pyridin-2-yl]methyl}-5H-pyrrolo[3,2-d]pyrimidine-2-carboxylic acid], the IC50 amounted to 0.844 µM. This IC50 lies about 2.4-fold higher than the previous one.

Compound `Cc1cccc(-c2cc3nc(C(=O)O)nc(N[C@H](C)C4CCC4)c3n2Cc2ccc(C)c(F)c2)c1` [Example 3.6, 4-{[(1R)-1-cyclobutylethyl]amino}-5-(3-fluoro-4-methylbenzyl)-6-(3-methylphenyl)-5H-pyrrolo[3,2-d]pyrimidine-2-carboxylic acid] yielded an IC50 of 0.124 µM. This IC50 lies about 6.8-fold lower than the previous one.
